Results: paper PMC8020153 (Journal of Advanced Research, 2020)

Target: pyruvate kinase isozyme type M2 (PKM2) (Homo sapiens, UniProt P14618)
Assay: SPR with immobilized recombinant human PKM2
Type: binding

Sequence of pyruvate kinase isozyme type M2 (PKM2) (P14618 2-531): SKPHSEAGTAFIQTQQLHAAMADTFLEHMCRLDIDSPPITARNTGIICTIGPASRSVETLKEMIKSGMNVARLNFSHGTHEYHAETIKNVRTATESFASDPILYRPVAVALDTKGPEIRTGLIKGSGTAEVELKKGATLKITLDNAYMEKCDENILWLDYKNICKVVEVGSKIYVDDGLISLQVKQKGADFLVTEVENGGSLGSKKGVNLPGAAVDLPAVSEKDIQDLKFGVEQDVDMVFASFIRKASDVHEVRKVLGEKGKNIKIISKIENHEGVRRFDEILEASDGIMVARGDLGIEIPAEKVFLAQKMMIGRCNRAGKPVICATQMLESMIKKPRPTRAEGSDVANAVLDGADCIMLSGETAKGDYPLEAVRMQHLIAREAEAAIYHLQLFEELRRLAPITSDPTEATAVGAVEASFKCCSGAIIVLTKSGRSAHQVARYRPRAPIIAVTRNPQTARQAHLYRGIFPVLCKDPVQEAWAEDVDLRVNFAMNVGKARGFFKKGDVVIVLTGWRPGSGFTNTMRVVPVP

C1=Cc2ccccc2Nc2ccccc21 [ISB, Iminostilbene]
Kd: 18.6 µM
